Among the data in patent US9278978B2, “6-Alkynyl Pyridine” (Boehringer Ingelheim International GmbH, priority 2013, dated 2016) are IC50 values, retold here.

One test has as its target cIAP1 BIR3 (Homo sapiens (Human), UniProt Q13490). The experiment in a line: cIAP1 BIR3 binding assay (DELFIA), BIR3 domain-SMAC peptide interaction.
Conditions: not given
How it is done:
XIAP BIR3 and cIAP1 BIR3 Binding Assays (DELFIA)
Peptide […]-Lys(Biotin), representing the N-terminus of mature human SMAC(SMAC peptide), was used as interaction partner in the protein-peptide interaction assay.
BIR3 domains (10 nM) were incubated with SMAC peptide (10 nM) in assay buffer (50 mM Tris, 120 mM NaCl, 0.1% BSA, 1 mM DTT, 0.05% TritonX100) for one hour at room temperature in the presence of inhibitory compounds. The assay mixture was transferred to a strepatvidin coated plate and incubated for one hour at room temperature to allow binding of the biotinylated peptide and associated BIR3 domains to the plate. After several washing steps Eu labeled anti-GST antibody (e.g. Perkin Elmer DELFIA Eu-N1-antiGST AD0250) was added to detect BIR3 domain-SMAC peptide interactions according to Perkin Elmer's instructions. […] Time resolved Europium fluorescence was measured in a Wallac Victor using Standard assay settings.
DELFIA assay results were plotted against compound concentrations and Software GraphPad Prizm was used to calculate half maximal inhibitory concentrations (IC50 values).
In turn, `CNC(C)C(=O)Nc1cc(-c2ncnc3ncn(C)c23)cc(C#Cc2ccc3c(ccc(=O)n3C)c2)n1` (stereo not shown) [Example 8, N-{6-[2-(1-methyl-2-oxo-1,2-dihydroquinolin-6-yl)ethynyl]-4-(7-methyl-7H-purin-6-yl)pyridin-2-yl}-2-(methylamino)propanamide] showed a concentration for half-maximal inhibition (IC50) of 1 nM.

`CNC(C)C(=O)Nc1cc(-c2ncnc3ncn(C)c23)cc(C#Cc2ccccc2)n1` (stereo not shown) [Example 7, N-[4-(7-methyl-7H-purin-6-yl)-6-(2-phenylethynyl)pyridin-2-yl]-2-(methylamino)propanamide] came in with an IC50 of 2 nM.

Consider `CNC(C)C(=O)Nc1cc(-c2ncnc3ncn(C)c23)cc(C#Cc2ccc(-n3cnc(C)c3)cc2)n1` (stereo not shown) [Example 9, N-(6-{2-[4-(4-methyl-1H-imidazol-1-yl)phenyl]ethynyl}-4-(7-methyl-7H-purin-6-yl)pyridin-2-yl)-2-(methylamino)propanamide], for which the IC50 is 2 nM.

The test is the same for the next values; noted with them: BIR3 domain 10 nM, SMAC peptide 10 nM; (S)-isomer (examples 1-34, 38-43) or racemate (examples 35-37); read-out: cIAP1 BIR-3 IC50.
Consider `CNC(C)C(=O)Nc1cc(-c2nc(C)nc3nn(C)c(C)c23)cc(C#Cc2ccc3c(C)nccc3c2)n1` (stereo not shown) [Example 18, 2-(methylamino)-N-{6-[2-(1-methylisoquinolin-6-yl)ethynyl]-4-{trimethyl-2H-pyrazolo[3,4-d]pyrimidin-4-yl}pyridin-2-yl}-propanamide], for which the 50% inhibitory concentration (IC50) was found to be 1 nM.

`CNC(C)C(=O)Nc1cc(-c2cnc3cccc(C)n23)cc(C#Cc2ccc3c(C)nccc3c2)n1` (stereo not shown) [Example 13, 2-(methylamino)-N-(4-{5-methylimidazo[1,2-a]pyridin-3-yl}-6-[2-(1-methylisoquinolin-6-yl)ethynyl]pyridin-2-yl)propanamide]: the half-inhibitory concentration (IC50) worked out at 1 nM.

Take `CNC(C)C(=O)Nc1cc(-c2ncnc3c(C)nn(C)c23)cc(C#Cc2ccc3c(C)nccc3c2)n1` (stereo not shown) [Example 2, N-(4-{1,3-dimethyl-1H-pyrazolo[4,3-d]pyrimidin-7-yl}-6-[2-(1-methylisoquinolin-6-yl)ethynyl]pyridin-2-yl)-2-(methylamino)propanamide]: the IC50 stood at 1 nM.

Take `CNC(C)C(=O)Nc1cc(-c2cccc3cnn(C)c23)c(Cl)c(C#Cc2ccc3c(C)nccc3c2)n1` (stereo not shown) [Example 24, N-[5-chloro-4-(1-methyl-1H-indazol-7-yl)-6-[2-(1-methylisoquinolin-6-yl)ethynyl]pyridin-2-yl]-2-(methylamino)propanamide]: the IC50 amounted to 12 nM.

Regarding `CNC(C)C(=O)Nc1cc(-c2nc(C)nc3nn(C)c(C)c23)cc(C#Cc2ccc3c(cnn3C)c2)n1` (stereo not shown) [Example 20, N-{6-[2-(1-methyl-1H-indazol-5-yl)ethynyl]-4-{trimethyl-2H-pyrazolo[3,4-d]pyrimidin-4-yl}pyridin-2-yl}-2-(methylamino)-propanamide], the IC50 was 1 nM.

Take `CCNC(CC)C(=O)Nc1cc(-c2ncnc3c(C)nn(C)c23)cc(C#Cc2ccc3c(C)nccc3c2)n1` (racemic) [Example 37, N-(4-{1,3-dimethyl-1H-pyrazolo[4,3-d]pyrimidin-7-yl}-6-[2-(1-methylisoquinolin-6-yl)ethynyl]pyridin-2-yl)-2-(ethylamino)butanamide]: the concentration for half-maximal inhibition (IC50) was found to be 6 nM.

Consider `CNC(C)C(=O)Nc1cc(-c2ncnc3c(C)nn(C)c23)cc(C#Cc2cc(F)cc(F)c2)n1` (stereo not shown) [Example 40, N-{6-[2-(3,5-difluorophenyl)ethynyl]-4-{1,3-dimethyl-1H-pyrazolo[4,3-d]pyrimidin-7-yl}pyridin-2-yl}-2-(methyl-amino)propanamide], for which the IC50 was 1 nM.

`CNC(C)C(=O)Nc1cc(-c2nc(C)nc3nn(C)c(C)c23)cc(C#Cc2cnc(-n3cnc(C)c3)nc2)n1` (stereo not shown) [Example 21, N-(6-{2-[2-(4-methyl-1H-imidazol-1-yl)pyrimidin-5-yl]ethynyl}-4-{trimethyl-2H-pyrazolo[3,4-d]pyrimidin-4-yl}pyridin-2-yl)-2-(methyl-amino)propanamide]: the IC50 was 1 nM.

Consider `CNC(C)C(=O)Nc1cc(-c2cncc(F)c2)cc(C#Cc2ccccc2)n1` (stereo not shown) [Example 29, N-[4-(5-fluoropyridin-3-yl)-6-(2-phenylethynyl)pyridin-2-yl]-2-(methylamino)propanamide], for which the IC50 is 127 nM.

Consider `CNC(C)C(=O)Nc1cc(-c2ccc(C(F)(F)F)nc2)cc(C#Cc2ccccc2)n1` (stereo not shown) [Example 30, 2-(methylamino)-N-[6-(2-phenylethynyl)-4-[6-(trifluoromethyl)pyridin-3-yl]pyridin-2-yl]propanamide], for which the IC50 came to 352 nM.

For the compound `CNC(C)C(=O)Nc1cc(-c2c(C)nc(C)c3c(=O)n(C)n(C)c23)cc(C#Cc2ccc3c(C)nccc3c2)n1` (stereo not shown) [Example 14, 2-(methylamino)-N-{6-[2-(1-methylisoquinolin-6-yl)ethynyl]-4-{1,2,4,6-tetramethyl-3-oxo-1H,2H,3H-pyrazolo[4,3-c]pyridin-7-yl}pyridin-2-yl}propanamide], the IC50 was determined as 1 nM.

Take `CNC(C)C(=O)Nc1cc(-c2ncnc3c(C)nn(C)c23)cc(C#Cc2ccn3c(C)ncc3c2)n1` (stereo not shown) [Example 4, N-(4-{1,3-dimethyl-1H-pyrazolo[4,3-d]pyrimidin-7-yl}-6-(2-{3-methylimidazo[1,5-a]pyridin-7-yl}ethynyl)pyridin-2-yl)-2-(methylamino)propanamide]: the 50% inhibitory concentration (IC50) worked out at 1 nM.

Take `CNC(C)C(=O)Nc1cc(-c2ncnc3c(C)nn(C)c23)cc(C#Cc2ccc(-n3cnc(C)c3)cc2)n1` (stereo not shown) [Example 41, N-(4-{1,3-dimethyl-1H-pyrazolo[4,3-d]pyrimidin-7-yl}-6-{2-[4-(4-methyl-1H-imidazol-1-yl)phenyl]-ethynyl}pyridin-2-yl)-2-(methylamino)propanamide]: the half-maximal inhibitory concentration (IC50) was found to be 1 nM.

`CNC(C)C(=O)Nc1cc(-c2cccc3cnn(C)c23)cc(C#Cc2ccc3c(c2)CC(=O)N3C)n1` (stereo not shown) [Example 12, N-[4-(1-methyl-1H-indazol-7-yl)-6-[2-(1-methyl-2-oxo-2,3-dihydro-1H-indol-5-yl)ethynyl]pyridin-2-yl]-2-(methylamino)propanamide]: the IC50 was found to be 11 nM.

`CNC(C)C(=O)Nc1cc(-c2nc(C)nc3nn(C)c(C)c23)cc(C#Cc2cccs2)n1` (stereo not shown) [Example 22, 2-(methylamino)-N-{6-[2-(thiophen-2-yl)ethynyl]-4-{trimethyl-2H-pyrazolo[3,4-d]pyrimidin-4-yl}pyridin-2-yl}propanamide]: the IC50 amounted to 1 nM.

For the compound `CNC(C)C(=O)Nc1cc(-c2ncnc3c(C)nn(C)c23)cc(C#Cc2cc(F)c3ncccc3c2)n1` (stereo not shown) [Example 42, N-(4-{1,3-dimethyl-1H-pyrazolo[4,3-d]pyrimidin-7-yl}-6-[2-(8-fluoroquinolin-6-yl)ethynyl]pyridin-2-yl)-2-(methylamino)propanamide], the IC50 stood at 1 nM.

On to `CNC(C)C(=O)Nc1cc(-c2ccccc2F)cc(C#Cc2ccccc2)n1` (stereo not shown) [Example 32, N-[4-(2-fluorophenyl)-6-(2-phenylethynyl)pyridin-2-yl]-2-(methylamino)propanamide], for which the half-inhibitory concentration (IC50) worked out at 4010 nM.

`CNC(C)C(=O)Nc1cc(-c2cccc3nc(C)c(C)n23)cc(C#Cc2ccc3c(C)nccc3c2)n1` (stereo not shown) [Example 11, N-(4-{2,3-dimethylimidazo[1,2-a]pyridin-5-yl}-6-[2-(1-methylisoquinolin-6-yl)ethynyl]pyridin-2-yl)-2-(methylamino)propanamide]: the IC50 was determined as 1 nM.

Take `CNC(C)C(=O)Nc1cc(-c2ncnc3c(C)nn(C)c23)cc(C#Cc2cnc3c(cnn3C)c2)n1` (stereo not shown) [Example 43, N-(4-{1,3-dimethyl-1H-pyrazolo[4,3-d]pyrimidin-7-yl}-6-(2-{1-methyl-1H-pyrazolo[3,4-b]pyridin-5-yl}ethynyl)pyridin-2-yl)-2-(methylamino)propanamide]: the IC50 was 1 nM.

Take `CNC(C)C(=O)Nc1cc(-c2nc(C)nc3nn(C)c(C)c23)cc(C#Cc2ccc3c(ccc(=O)n3C)c2)n1` (stereo not shown) [Example 19, N-{6-[2-(1-methyl-2-oxo-1,2-dihydroquinolin-6-yl)ethynyl]-4-{trimethyl-2H-pyrazolo[3,4-d]pyrimidin-4-yl}pyridin-2-yl}-2-(methylamino)propanamide]: the IC50 worked out at 2 nM.

As for `CNC(C)C(=O)Nc1cc(-c2ncnc3c(C)nn(C)c23)cc(C#Cc2cc(C)nc3c(F)cccc23)n1` (stereo not shown) [Example 3, N-(4-{1,3-dimethyl-1H-pyrazolo[4,3-d]pyrimidin-7-yl}-6-[2-(8-fluoro-2-methylquinolin-4-yl)ethynyl]pyridin-2-yl)-2-(methylamino)propanamide], the IC50 came out at 1 nM.

With `CNC(C)C(=O)Nc1cc(-c2ccncc2)c(-c2cncnc2)c(C#Cc2ccccc2)n1` (racemic) [Example 35, 2-(methylamino)-N-[6-(2-phenylethynyl)-4-(pyridin-4-yl)-5-(pyrimidin-5-yl)pyridin-2-yl]propanamide], the IC50 is 250 nM.

Turning to `CNC(C)C(=O)Nc1cc(-c2ccc(OC)nc2)cc(C#Cc2ccccc2)n1` (stereo not shown) [Example 31, N-[4-(6-methoxypyridin-3-yl)-6-(2-phenylethynyl)pyridin-2-yl]-2-(methylamino)propanamide], the IC50 turned out to be 325 nM.

On to `CNC(C)C(=O)Nc1cc(-c2ncnc3oc(C)c(C)c23)cc(C#Cc2ccccc2)n1` (stereo not shown) [Example 10, N-(4-{5,6-dimethylfuro[2,3-d]pyrimidin-4-yl}-6-(2-phenylethynyl)pyridin-2-yl)-2-(methylamino)propanamide], for which the IC50 worked out at 2 nM.

Take `CNC(C)C(=O)Nc1cc(-c2ncnc3c(C)nn(C)c23)cc(C#Cc2ccc3nc(C)ccc3c2)n1` (stereo not shown) [Example 38, N-(4-{1,3-dimethyl-1H-pyrazolo[4,3-d]pyrimidin-7-yl}-6-[2-(2-methylquinolin-6-yl)ethynyl]pyridin-2-yl)-2-(methylamino)propanamide]: the IC50 was found to be 1 nM.

In general, IC50 refers to the midpoint of a concentration-inhibition curve.
